In paper PMC7435868, “Structure-Based Virtual Screening, Synthesis and Biological Evaluation of Potential FAK-FAT Domain Inhibitors for Treatment of Metastatic Cancer” (Molecules, 2020):
Where a name gives a salt, the structure may show the parent alone.

Test system: T47D
Assay: Cell viability assay (CellTiter Glo), T47D
Format: cell-based, human
Conditions: 72 h incubation, mean of independent triplicate experiments, read-out: In vitro anti-proliferative activity IC50, T47D ER+ PR+/- HER-
Procedure: (§1) The antiproliferative activity of compound I as well as its newly synthesised analogues (5a–i) was evaluated in vitro against the three human breast cancer cell lines MDA-MB-231 (TNBC), T47D (ER^+, HER^−), and BT474 (ER^+, HER^+) as well as a human pancreatic cancer cell line MIAPaCa2. The seeding of the corresponding cell lines started one day before incubation, which lasted for 72 h with the different concentrations of the tested compounds. CellTiter Glo reagent (25 μL) was added to the cell plate. The luminescence was analysed after 10 min using a PerkinElmer Envision instrument. The test compounds were used at ten different triplicate concentrations in half log increments up to 100 μM.

Compound	IC50
CC(C)(C)c1ccc(C(CN)c2ccc(C(C)(C)C)cc2)cc1.Cl [5f, 2,2-Bis(4-tert-butylphenyl)ethan-1-aminium chloride]	4.59 µM

Same assay, conditions: Homo sapiens, T47D, 72 h, 72 h incubation, mean of independent triplicate experiments, read-out: In vitro anti-proliferative activity IC50, T47D ER+ PR+/- HER-

IC50	Compound
4.94 µM	CC(C)(C)c1ccc(C(CN)c2ccc(OC(F)(F)F)cc2)cc1 (stereo not drawn) [5a, 2-(4-tert-butylphenyl)-2-(4-trifluoromethoxyphenyl)ethan-1-aminium hydrochloride]
13.2 µM	Cl.NCC(c1ccc(OC(F)(F)F)cc1)c1ccc(OC(F)(F)F)cc1 [5h, 2,2-Bis(4-trifluoromethoxyphenyl)ethan-1-aminium chloride]

Compound	IC50
CC(C)(C)c1ccc(C(CN)c2ccc(C(C)(C)C)cc2)cc1.Cl [5f, 2,2-Bis(4-tert-butylphenyl)ethan-1-aminium chloride]	4.7 µM

Test system: MDA-MB-231
Assay: Cell viability assay (CellTiter Glo), MDA-MB-231
Format: cell-based
Conditions: Homo sapiens, 72 h incubation, mean of independent triplicate experiments, read-out: In vitro anti-proliferative activity IC50, MDA-MB-231 ER- PR- HER-
Procedure: as §1

IC50	Compound
5.63 µM	CC(C)(C)c1ccc(C(CN)c2ccc(OC(F)(F)F)cc2)cc1 (stereo not drawn) [5a, 2-(4-tert-butylphenyl)-2-(4-trifluoromethoxyphenyl)ethan-1-aminium hydrochloride]
12.8 µM	Cl.NCC(c1ccc(OC(F)(F)F)cc1)c1ccc(OC(F)(F)F)cc1 [5h, 2,2-Bis(4-trifluoromethoxyphenyl)ethan-1-aminium chloride]

Compound	IC50
CC(C)(C)c1ccc(C(CN)c2ccc(C(C)(C)C)cc2)cc1.Cl [5f, 2,2-Bis(4-tert-butylphenyl)ethan-1-aminium chloride]	5.06 µM

Test system: not listed separately
Assay: Turbidimetric aqueous solubility
Format: physicochemical
Conditions: buffered aqueous solution (PBS pH 7.4, 1% DMSO), 37 °C, 2 h
Procedure: Both the estimated precipitation range (lower and upper bound) and a mid-range value were measured. Nicardipine and pyrene were used as control compounds.
The test compound was diluted in buffer to give a range of concentrations (1, 3, 10, 30, and 100 μM; final DMSO concentration 1%) and incubated at 37 °C for 2 hr.
The test compound (10 mM in DMSO) was serially diluted to give solutions of 0.1, 0.3, 1, and 3 mM in DMSO. Each test compound concentration was then further diluted 1 to 100 in buffer (typically 0.01 M phosphate buffered saline pH 7.4) so that the final DMSO concentration was 1%, and the final test compound concentrations were 1, 3, 10, 30, and 100 μM. The experiment was performed at 37 °C and each concentration was incubated in 7 replicate wells. The plates were incubated for 2 h at 37 °C before the absorbance was measured at 620 nm. Nicardipine and pyrene were included as control compounds. The solubility of nicardipine is pH dependent whereas the solubility of pyrene is pH independent.
An estimated precipitation range (lower and upper bound) and a calculated mid-range value were returned, along with any relevant comments, in the form of an Excel spreadsheet.

Estimated Precipitation Range, Calculated Mid-Range	Estimated Precipitation Range, Lower Bound	Estimated Precipitation Range, Upper Bound	Compound
65 µM	30 µM	100 µM	CC(C)(C)c1ccc(C(CN)c2ccc(OC(F)(F)F)cc2)cc1 (stereo not drawn) [5a, 2-(4-tert-butylphenyl)-2-(4-trifluoromethoxyphenyl)ethan-1-aminium hydrochloride]
65 µM	30 µM	100 µM	Cl.NCC(c1ccc(OC(F)(F)F)cc1)c1ccc(OC(F)(F)F)cc1 [5h, 2,2-Bis(4-trifluoromethoxyphenyl)ethan-1-aminium chloride]

Compound	Estimated Precipitation Range, Calculated Mid-Range	Estimated Precipitation Range, Lower Bound	Estimated Precipitation Range, Upper Bound
CC(C)(C)c1ccc(C(CN)c2ccc(C(C)(C)C)cc2)cc1.Cl [5f, 2,2-Bis(4-tert-butylphenyl)ethan-1-aminium chloride]	3.75 µM	1 µM	6.5 µM

Same assay, conditions: turbidimetric, 37 °C, 2 h

Aqueous solubility (in words)	Compound
moderate solubility	CC(C)(C)c1ccc(C(CN)c2ccc(OC(F)(F)F)cc2)cc1 (stereo not drawn) [5a, 2-(4-tert-butylphenyl)-2-(4-trifluoromethoxyphenyl)ethan-1-aminium hydrochloride]
moderate solubility	Cl.NCC(c1ccc(OC(F)(F)F)cc1)c1ccc(OC(F)(F)F)cc1 [5h, 2,2-Bis(4-trifluoromethoxyphenyl)ethan-1-aminium chloride]

Compound	Aqueous solubility (in words)
CC(C)(C)c1ccc(C(CN)c2ccc(C(C)(C)C)cc2)cc1.Cl [5f, 2,2-Bis(4-tert-butylphenyl)ethan-1-aminium chloride]	relatively reduced solubility comparable to pyrene

Test system: MIAPaCa2
Assay: Cell viability assay (CellTiter Glo), MIAPaCa2
Format: cell-based
Conditions: Homo sapiens, MIA PaCa-2, 72 h incubation, mean of independent triplicate experiments, read-out: In vitro anti-proliferative activity IC50, MIAPaCa2
Procedure: as §1

IC50	Compound
5.51 µM	CC(C)(C)c1ccc(C(CN)c2ccc(OC(F)(F)F)cc2)cc1 (stereo not drawn) [5a, 2-(4-tert-butylphenyl)-2-(4-trifluoromethoxyphenyl)ethan-1-aminium hydrochloride]
39.9 µM	Cl.NCC(c1ccc(OC(F)(F)F)cc1)c1ccc(OC(F)(F)F)cc1 [5h, 2,2-Bis(4-trifluoromethoxyphenyl)ethan-1-aminium chloride]

Compound	IC50
CC(C)(C)c1ccc(C(CN)c2ccc(C(C)(C)C)cc2)cc1.Cl [5f, 2,2-Bis(4-tert-butylphenyl)ethan-1-aminium chloride]	5.28 µM

Test system: not listed separately
Assay: Microsomal metabolic stability
Conditions: human liver microsomes, 0 min
Procedure: Half-life (t1/2) values were measured at five time points.
Intrinsic clearance values (CLint) with standard error and t1⁄2 values were measured.
The final incubation volume was 50 μL. A minus cofactor control incubation was included for each compound tested where 0.1 M phosphate buffer pH 7.4 was added instead of NADPH (minus NADPH). Two control compounds were included with each species. All incubations were performed singularly for each test compound.
The reactions were stopped by transferring 20 μL of incubate to 60 μL methanol at the appropriate time points. The termination plates were centrifuged at 2500 rpm for 20 min at 4 °C to precipitate the protein.
Following protein precipitation, the sample supernatants were combined in cassettes of up to 4 compounds, the internal standard was added, and samples were analysed using Cyprotex generic LC-MS/MS conditions.
From a plot of ln peak area ratio (compound peak area/internal standard peak area) against time, the gradient of the line was determined.

Compound Remaining (% of 0 min), 0 min	Compound
100 % of 0 min	CC(C)(C)c1ccc(C(CN)c2ccc(OC(F)(F)F)cc2)cc1 (stereo not drawn) [5a, 2-(4-tert-butylphenyl)-2-(4-trifluoromethoxyphenyl)ethan-1-aminium hydrochloride]
100 % of 0 min	Cl.NCC(c1ccc(OC(F)(F)F)cc1)c1ccc(OC(F)(F)F)cc1 [5h, 2,2-Bis(4-trifluoromethoxyphenyl)ethan-1-aminium chloride]

Compound	Compound Remaining (% of 0 min), 0 min
CC(C)(C)c1ccc(C(CN)c2ccc(C(C)(C)C)cc2)cc1.Cl [5f, 2,2-Bis(4-tert-butylphenyl)ethan-1-aminium chloride]	100 % of 0 min

Same assay, conditions: human liver microsomes, 5 min

Compound Remaining (% of 0 min), 5 min	Compound
95.8 % of 0 min	CC(C)(C)c1ccc(C(CN)c2ccc(OC(F)(F)F)cc2)cc1 (stereo not drawn) [5a, 2-(4-tert-butylphenyl)-2-(4-trifluoromethoxyphenyl)ethan-1-aminium hydrochloride]
102 % of 0 min	Cl.NCC(c1ccc(OC(F)(F)F)cc1)c1ccc(OC(F)(F)F)cc1 [5h, 2,2-Bis(4-trifluoromethoxyphenyl)ethan-1-aminium chloride]

Compound	Compound Remaining (% of 0 min), 5 min
CC(C)(C)c1ccc(C(CN)c2ccc(C(C)(C)C)cc2)cc1.Cl [5f, 2,2-Bis(4-tert-butylphenyl)ethan-1-aminium chloride]	97.2 % of 0 min

Same assay, conditions: human liver microsomes, 15 min

Compound Remaining (% of 0 min), 15 min	Compound
92.3 % of 0 min	CC(C)(C)c1ccc(C(CN)c2ccc(OC(F)(F)F)cc2)cc1 (stereo not drawn) [5a, 2-(4-tert-butylphenyl)-2-(4-trifluoromethoxyphenyl)ethan-1-aminium hydrochloride]
108 % of 0 min	Cl.NCC(c1ccc(OC(F)(F)F)cc1)c1ccc(OC(F)(F)F)cc1 [5h, 2,2-Bis(4-trifluoromethoxyphenyl)ethan-1-aminium chloride]

Compound	Compound Remaining (% of 0 min), 15 min
CC(C)(C)c1ccc(C(CN)c2ccc(C(C)(C)C)cc2)cc1.Cl [5f, 2,2-Bis(4-tert-butylphenyl)ethan-1-aminium chloride]	92.2 % of 0 min

Same assay, conditions: human liver microsomes, 30 min

Compound Remaining (% of 0 min), 30 min	Compound
86.0 % of 0 min	CC(C)(C)c1ccc(C(CN)c2ccc(OC(F)(F)F)cc2)cc1 (stereo not drawn) [5a, 2-(4-tert-butylphenyl)-2-(4-trifluoromethoxyphenyl)ethan-1-aminium hydrochloride]
100 % of 0 min	Cl.NCC(c1ccc(OC(F)(F)F)cc1)c1ccc(OC(F)(F)F)cc1 [5h, 2,2-Bis(4-trifluoromethoxyphenyl)ethan-1-aminium chloride]

Compound	Compound Remaining (% of 0 min), 30 min
CC(C)(C)c1ccc(C(CN)c2ccc(C(C)(C)C)cc2)cc1.Cl [5f, 2,2-Bis(4-tert-butylphenyl)ethan-1-aminium chloride]	88.0 % of 0 min

Same assay, conditions: human liver microsomes, 45 min

Compound Remaining (% of 0 min), 45 min	Compound
81.4 % of 0 min	CC(C)(C)c1ccc(C(CN)c2ccc(OC(F)(F)F)cc2)cc1 (stereo not drawn) [5a, 2-(4-tert-butylphenyl)-2-(4-trifluoromethoxyphenyl)ethan-1-aminium hydrochloride]
95.8 % of 0 min	Cl.NCC(c1ccc(OC(F)(F)F)cc1)c1ccc(OC(F)(F)F)cc1 [5h, 2,2-Bis(4-trifluoromethoxyphenyl)ethan-1-aminium chloride]

Compound	Compound Remaining (% of 0 min), 45 min
CC(C)(C)c1ccc(C(CN)c2ccc(C(C)(C)C)cc2)cc1.Cl [5f, 2,2-Bis(4-tert-butylphenyl)ethan-1-aminium chloride]	80.7 % of 0 min

Same assay, conditions: human liver microsomes, minus NADPH control, 45 min

Compound Remaining (% of 0 min), Control	Compound
91.0 % of 0 min	CC(C)(C)c1ccc(C(CN)c2ccc(OC(F)(F)F)cc2)cc1 (stereo not drawn) [5a, 2-(4-tert-butylphenyl)-2-(4-trifluoromethoxyphenyl)ethan-1-aminium hydrochloride]
97.8 % of 0 min	Cl.NCC(c1ccc(OC(F)(F)F)cc1)c1ccc(OC(F)(F)F)cc1 [5h, 2,2-Bis(4-trifluoromethoxyphenyl)ethan-1-aminium chloride]

Compound	Compound Remaining (% of 0 min), Control
CC(C)(C)c1ccc(C(CN)c2ccc(C(C)(C)C)cc2)cc1.Cl [5f, 2,2-Bis(4-tert-butylphenyl)ethan-1-aminium chloride]	88.0 % of 0 min

Same assay, conditions: human, microsomes, pH 7.4

Compound	half-life at 3 μM
CC(C)(C)c1ccc(C(CN)c2ccc(C(C)(C)C)cc2)cc1.Cl [5f, 2,2-Bis(4-tert-butylphenyl)ethan-1-aminium chloride]	2.47 h

Same assay, conditions: human, pooled liver microsomes, pH 7.4

half-life at 3 μM	microsomal CLint at 3 μM	Compound
2.6 h	8.91 µL/min/mg	CC(C)(C)c1ccc(C(CN)c2ccc(OC(F)(F)F)cc2)cc1 (stereo not drawn) [5a, 2-(4-tert-butylphenyl)-2-(4-trifluoromethoxyphenyl)ethan-1-aminium hydrochloride]
9.82 h	2.35 µL/min/mg	Cl.NCC(c1ccc(OC(F)(F)F)cc1)c1ccc(OC(F)(F)F)cc1 [5h, 2,2-Bis(4-trifluoromethoxyphenyl)ethan-1-aminium chloride]

Compound	half-life at 3 μM	microsomal CLint at 3 μM
CC(C)(C)c1ccc(C(CN)c2ccc(C(C)(C)C)cc2)cc1.Cl [5f, 2,2-Bis(4-tert-butylphenyl)ethan-1-aminium chloride]		9.34 µL/min/mg

Test system: MDA-MB-231, T47D, BT474, and MIAPaCa2
Assay: Cell viability assay, statements across the four cell lines
Format: cell-based, human
Conditions: Homo sapiens; MDA-MB-231, T47D, BT474, and MIAPaCa2; read-out: IC50 values range across cell lines
Procedure: as §1

Compound	IC50
CC(C)(C)c1ccc(C(CN)c2ccc(C(C)(C)C)cc2)cc1.Cl [5f, 2,2-Bis(4-tert-butylphenyl)ethan-1-aminium chloride]	4.59 to 5.28 µM

Same assay, conditions: three human breast and one pancreatic cancer cell line, up to 100 μM

Compound	Anti-proliferative activity (in words) across the four cell lines
CC(C)(C)c1ccc(C(CN)c2ccc(C(C)(C)C)cc2)cc1.Cl [5f, 2,2-Bis(4-tert-butylphenyl)ethan-1-aminium chloride]	low micromolar antiproliferative activity

Target: hERG potassium channel (Homo sapiens, UniProt Q12809)
Sequence (Q12809 whole entry): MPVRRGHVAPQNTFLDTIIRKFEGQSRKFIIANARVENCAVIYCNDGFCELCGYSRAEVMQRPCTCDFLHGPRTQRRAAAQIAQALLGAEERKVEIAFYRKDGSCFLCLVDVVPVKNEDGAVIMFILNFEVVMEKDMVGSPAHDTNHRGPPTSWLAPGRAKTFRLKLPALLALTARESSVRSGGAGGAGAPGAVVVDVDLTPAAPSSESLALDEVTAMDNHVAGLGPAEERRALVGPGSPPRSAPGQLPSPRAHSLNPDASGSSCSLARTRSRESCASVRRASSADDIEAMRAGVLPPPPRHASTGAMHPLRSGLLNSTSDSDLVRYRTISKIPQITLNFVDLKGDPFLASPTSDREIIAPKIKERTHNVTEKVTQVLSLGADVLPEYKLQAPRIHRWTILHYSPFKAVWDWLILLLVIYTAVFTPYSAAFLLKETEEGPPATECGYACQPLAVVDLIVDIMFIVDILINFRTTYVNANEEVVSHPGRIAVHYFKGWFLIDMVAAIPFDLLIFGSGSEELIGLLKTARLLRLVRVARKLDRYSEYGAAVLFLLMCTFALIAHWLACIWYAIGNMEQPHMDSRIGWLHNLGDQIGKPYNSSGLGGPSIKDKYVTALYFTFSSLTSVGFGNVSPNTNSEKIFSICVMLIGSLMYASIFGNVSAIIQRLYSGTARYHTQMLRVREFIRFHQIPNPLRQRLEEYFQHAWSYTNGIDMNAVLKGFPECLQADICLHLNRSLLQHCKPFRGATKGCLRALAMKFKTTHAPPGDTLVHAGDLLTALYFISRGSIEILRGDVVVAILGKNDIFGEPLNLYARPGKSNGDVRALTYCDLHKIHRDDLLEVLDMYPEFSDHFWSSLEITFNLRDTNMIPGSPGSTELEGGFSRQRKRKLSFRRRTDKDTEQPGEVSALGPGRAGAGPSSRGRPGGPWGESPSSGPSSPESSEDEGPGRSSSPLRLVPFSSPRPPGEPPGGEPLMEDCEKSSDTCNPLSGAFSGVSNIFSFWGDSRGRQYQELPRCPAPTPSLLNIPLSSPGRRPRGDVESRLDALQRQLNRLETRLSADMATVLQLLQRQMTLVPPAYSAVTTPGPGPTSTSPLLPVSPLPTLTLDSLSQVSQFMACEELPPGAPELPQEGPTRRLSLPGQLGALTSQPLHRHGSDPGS
Assay: hERG channel inhibition (IonWorks automated patch clamp, CHO-hERG cells)
Conditions: not given

Compound	IC50
CC(C)(C)c1ccc(C(CN)c2ccc(OC(F)(F)F)cc2)cc1 (stereo not drawn) [5a, 2-(4-tert-butylphenyl)-2-(4-trifluoromethoxyphenyl)ethan-1-aminium hydrochloride]	3.59 µM
CC(C)(C)c1ccc(C(CN)c2ccc(C(C)(C)C)cc2)cc1.Cl [5f, 2,2-Bis(4-tert-butylphenyl)ethan-1-aminium chloride]	> 25 µM

Test system: BT474
Assay: Cell viability assay (CellTiter Glo), BT474
Format: cell-based, human
Conditions: 72 h incubation, mean of independent triplicate experiments, read-out: In vitro anti-proliferative activity IC50, BT474 ER+ PR+/- HER+
Procedure: as §1

Compound	IC50
CC(C)(C)c1ccc(C(CN)c2ccc(C(C)(C)C)cc2)cc1.Cl [5f, 2,2-Bis(4-tert-butylphenyl)ethan-1-aminium chloride]	4.7 µM

Same assay, conditions: Homo sapiens, BT-474, 72 h, 72 h incubation, mean of independent triplicate experiments, read-out: In vitro anti-proliferative activity IC50, BT474 ER+ PR+/- HER+

IC50	Compound
5 µM	CC(C)(C)c1ccc(C(CN)c2ccc(OC(F)(F)F)cc2)cc1 (stereo not drawn) [5a, 2-(4-tert-butylphenyl)-2-(4-trifluoromethoxyphenyl)ethan-1-aminium hydrochloride]
13.2 µM	Cl.NCC(c1ccc(OC(F)(F)F)cc1)c1ccc(OC(F)(F)F)cc1 [5h, 2,2-Bis(4-trifluoromethoxyphenyl)ethan-1-aminium chloride]

Compound	IC50
CC(C)(C)c1ccc(C(CN)c2ccc(C(C)(C)C)cc2)cc1.Cl [5f, 2,2-Bis(4-tert-butylphenyl)ethan-1-aminium chloride]	4.59 µM
